# Data: patent publication US9839642B2, “Beta-tetrazolyl-propionic acids as metallo-beta-lactamase inhibitors” (priority 2014, dated 2017)
# Read-outs that look alike come from different tables or passages of the source.
# Tests used:
# VIM-1 = VIM-1 (Pseudomonas aeruginosa, UniProt A0A0F7KYQ8); experiment: Enzyme activity: determination of IC50, fluorescence assay with CCF2-FA substrate; type: biochemical; settings: CCF2-FA 1.25 μM, 2 hours at 25° C.
# Procedure, shortened: (§1)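 Final enzyme levels differed by target: 1 pM NDM-1, 2 pM IMP-1, 30 pM VIM-1. Each was incubated 2 hours at 25° C with test compound and 1.25 μM CCF2-FA, and 460 nm fluorescence (405 nm excitation) was fitted by 4-parameter curve to obtain IC50.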
# NDM-1 = NDM-1 (Klebsiella pneumoniae, UniProt C7C422); experiment: as above; type: biochemical; settings: CCF2-FA 1.25 μM, 2 hours at 25° C.
# Procedure, shortened: as §1
# IMP-1 = IMP-1 (Serratia marcescens, UniProt P52699); experiment: as above; type: biochemical; settings: CCF2-FA 1.25 μM, 2 hours at 25° C.
# Procedure, shortened: as §1
# [1] = system: Serratia marcescens expressing IMP-1 (CL5741); experiment: Antibiotic potentiation activity: synergistic concentration (MITC95) with imipenem, growth by OD600; type: cell-based; settings: 95% inhibition of bacterial growth, strain CL5741
# Procedure, shortened: (§2)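 Colonies from overnight agar plates (35 °C) were suspended in saline and diluted 1:100 into 1.1× CAMHB. Inhibitor (final 200 μM to 0.195 μM) was combined with imipenem at 1 or 4 μg/ml, incubated 22–24 h at 35 °C, and absorbance read; MITC95 is the lowest inhibitor concentration giving 95% growth inhibition.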
# [2] = system: Klebsiella pneumoniae expressing VIM-1 (IHMA599644); experiment: as above; type: cell-based; settings: 95% inhibition of bacterial growth, strain IHMA599644
# Procedure, shortened: as §2
# [3] = system: Escherichia coli expressing NDM-1 (CLB30005); experiment: as above; type: cell-based; settings: 95% inhibition of bacterial growth, strain CLB30005
# Procedure, shortened: as §2
# [4] = enzyme 30 pM, read-out: VIM1 IC50
# [5] = enzyme 1 pM, read-out: NDM1 IC50
# [6] = enzyme 2 pM, read-out: IMP1 IC50
# IMP-1, sequence (P52699 19-246, looked up, species assumed): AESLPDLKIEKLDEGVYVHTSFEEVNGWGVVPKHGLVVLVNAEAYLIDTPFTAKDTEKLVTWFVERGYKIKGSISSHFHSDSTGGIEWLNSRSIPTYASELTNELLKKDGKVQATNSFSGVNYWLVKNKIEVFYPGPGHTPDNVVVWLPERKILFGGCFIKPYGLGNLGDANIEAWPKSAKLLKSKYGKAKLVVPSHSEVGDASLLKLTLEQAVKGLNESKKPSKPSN
# NDM-1, sequence (C7C422 29-270, looked up, species assumed): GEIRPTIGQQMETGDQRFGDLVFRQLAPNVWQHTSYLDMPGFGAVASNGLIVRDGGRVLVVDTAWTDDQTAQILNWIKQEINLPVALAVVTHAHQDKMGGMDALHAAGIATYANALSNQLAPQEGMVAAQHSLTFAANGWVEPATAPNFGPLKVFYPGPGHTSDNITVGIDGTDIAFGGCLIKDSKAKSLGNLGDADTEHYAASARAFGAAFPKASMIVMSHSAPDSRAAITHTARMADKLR
SMILES,IC50 (VIM-1; [4]) [nM],IC50 (NDM-1; [5]) [nM],IC50 (IMP-1; [6]) [nM],IMP1 SM5741 MITC95 [1] [µM],VIM1 KP599644 MITC95 [2] [µM],NDM1 EC30005 MITC95 [3] [µM],"IC50 (VIM-1; VIM1 IC50, enzyme 30 pM) [nM]","IC50 (NDM-1; NDM1 IC50, enzyme 1 pM) [nM]","IC50 (IMP-1; IMP1 IC50, enzyme 2 pM) [nM]"
"O=C(O)[C@@H](CC(F)F)[C@H](Cc1ccccc1)c1nnn[nH]1 [Example 22, (2S,3S)-2-(2,2-difluoroethyl)-4-phenyl-3-(1H-tetrazol-5-yl)butanoic acid]",14,280,2600,200,50,31,,,
"CC(C)C[C@H](C(=O)O)[C@@H](c1nnn[nH]1)[C@H](C)c1ccccc1 [Example 27, (2S,3S,4S)-2-isobutyl-4-phenyl-3-(1H-tetrazol-5-yl)pentanoic acid]",7.7,16,62,13,37.5,15.6,,,
"C[C@@H](c1ccccc1)[C@H](c1nnn[nH]1)[C@H](CCF)C(=O)O [Example 28, (2S,3S,4R)-2-(2-fluoroethyl)-4-phenyl-3-(1H-tetrazol-5-yl)pentanoic acid]",190,310,1800,>200,>200,200,,,
"CC[C@H](C(=O)O)[C@@H](c1nnn[nH]1)[C@@H](C)c1ccccc1 [Example 29, (2S,3S,4R)-2-ethyl-4-phenyl-3-(1H-tetrazol-5-yl)pentanoic acid]",210,530,2300,>200,200,25,,,
"CCCC[C@@H](C(=O)O)[C@@H](Cc1ccc(Br)cc1)c1nnn[nH]1 [Example 30, (R)-2-((R)-2-(4-bromophenyl)-1-(1H-tetrazol-5-yl)ethyl)hexanoic acid]",,,,50,>200,>200,240,4700,220
"O=C(O)[C@H](CCC1CCCCC1)[C@@H](Cc1ccccc1)c1nnn[nH]1 [Example 31, (2R,3R)-2-(2-cyclohexylethyl)-4-phenyl-3-(1H-tetrazol-5-yl)butanoic acid]",590,740,410,>200,>200,>200,,,
"O=C(O)[C@@H](CCCCO)[C@H](Cc1ccccc1)c1nnn[nH]1 [Example 32, (S)-6-hydroxy-2-((S)-2-phenyl-1-(1H-tetrazol-5-yl)ethyl)hexanoic acid]",240,720,5000,>200,200,75,,,
"N#CCCCC[C@H](C(=O)O)[C@H](Cc1ccccc1)c1nnn[nH]1 [Example 33, (S)-6-cyano-2-((S)-2-phenyl-1-(1H-tetrazol-5-yl)ethyl)hexanoic acid]",110,390,2100,50,>200,75,,,
"O=C(O)CCCC[C@H](C(=O)O)[C@H](Cc1ccccc1)c1nnn[nH]1 [Example 34, (S)-2-((S)-2-phenyl-1-(1H-tetrazol-5-yl)ethyl)heptanedioic acid]",40,200,1500,200,200,25,,,
"NC(=O)CCCC[C@H](C(=O)O)[C@H](Cc1ccccc1)c1nnn[nH]1 [Example 35, (S)-7-amino-7-oxo-2-((S)-2-phenyl-1-(1H-tetrazol-5-yl)ethyl)heptanoic acid]",210,1400,3100,>200,>200,100,,,
"O=C(O)[C@@H](CCCC1CCNCC1)[C@H](Cc1ccccc1)c1nnn[nH]1 [Example 36, (S)-2-((S)-2-phenyl-1-(1H-tetrazol-5-yl)ethyl)-5-(piperidin-4-yl)pentanoic acid]",21,30,2000,108,100,60,,,
"O=C(O)[C@@H](CCCCc1ccccc1)[C@H](Cc1ccc2c(c1)OCO2)c1nnn[nH]1 [Example 37, (2S)-2-[(1S)-2-(1,3-benzodioxol-5-yl)-1-(2H-tetrazol-5-yl)ethyl]-6-phenylhexanoic acid]",10,27,120,106,>200,200,,,
"CC(C)CCCCC[C@H](C(=O)O)[C@H](Cc1ccc2c(c1)OCO2)c1nnn[nH]1 [Example 38, (2S)-2-[(1S)-2-(1,3-benzodioxol-5-yl)-1-(2H-tetrazol-5-yl)ethyl]-8-methylnonanoic acid]",5.5,12,49,31,>200,100,,,
"CCCCC[C@H](C(=O)O)[C@H](Cc1ccc2c(c1)OCO2)c1nnn[nH]1 [Example 39, (2S)-2-[(1S)-2-(1,3-benzodioxol-5-yl)-1-(1H-tetrazol-5-yl)ethyl]heptanoic acid]",11,86,210,>200,100,75,,,
"CCC[C@H](C(=O)O)[C@H](Cc1ccc(C#N)cc1)c1nn[nH]n1 [Example 40, (S)-2-((S)-2-(4-cyanophenyl)-1-(2H-tetrazol-5-yl)ethyl)pentanoic acid]",4.3,160,2500,100,25,8.3,,,
"CCC[C@H](C(=O)O)[C@H](Cc1ccc(C(N)=O)cc1)c1nn[nH]n1 [Example 45, (S)-2-((S)-2-(4-carbamoylphenyl)-1-(2H-tetrazol-5-yl)ethyl)pentanoic acid]",3.3,93,850,37.5,25,4.2,,,
"CCC[C@H](C(=O)O)[C@H](Cc1ccc(S(C)(=O)=O)cc1)c1nn[nH]n1 [Example 49, (S)-2-((S)-2-(4-(methylsulfonyl)phenyl)-1-(2H-tetrazol-5-yl)ethyl)pentanoic acid]",7.6,69,720,37.5,50,6.2,,,
"CC[C@H](C)[C@H](C(=O)O)[C@H](Cc1ccc(-c2ccc(-c3nnn[nH]3)cc2)cc1)c1nn[nH]n1 [Example 58, (2S,3S)-2-((S)-2-(4′-(1H-tetrazol-5-yl)-[1,1′-biphenyl]-4-yl)-1-(2H-tetrazol-5-yl)ethyl)-3-methylpentanoic acid]",5.1,< 0.64,1.4,12.9,200,18.8,,,
